# Results from US9902940B2, “Human blood-brain barrier endothelial cells derived from pluripotent stem cells and blood-brain barrier model thereof” (Wisconsin Alumni Research Foundation, priority 2010, dated 2018).
# Like-named read-outs stand apart in the source and are kept apart here.
# B1: SFRP2: mouse secreted protein that binds to soluble Wnts and prevents upstream activation of the Wnt pathway (protein, UniProt P97299 25-295, looked up)
# Secreted frizzled-related …: LFLFGQPDFSYKRSNCKPIPANLQLCHGIEYQNMRLPNLLGHETMKEVLEQAGAWIPLVMKQCHPDTKKFLCSLFAPVCLDDLDETIQPCHSLCVQVKDRCAPVMSAFGFPWPDMLECDRFPQDNDLCIPLASSDHLLPATEEAPKVCEACKTKNEDDNDIMETLCKNDFALKIKVKEITYINRDTKIILETKSKTIYKLNGVSERDLKKSVLWLKDSLQCTCEEMNDINAPYLVMGQKQGGELVITSVKRWQKGQREFKRISRSIRKLQC
# Tests used:
# IMR90-4-derived BMECs = experiment: Permeability coefficients (Pe) of radiolabeled small molecules across the IMR90-4-derived BMEC/astrocyte co-culture model
# Description: For co-culture experiments, primary astrocytes were isolated as previously described^37. Briefly, cortices were isolated from P6 neonatal Sprague Dawley rats (Harlan) and minced in Hank's Balanced Salt Solution (HBSS; Sigma). […] After trituration and filtration, cells were cultured on collagen-I-coated flasks (100 μg/mL; Sigma) in DMEM containing 10% qualified heat-inactivated fetal bovine serum (FBS; Invitrogen), 10% heat-inactivated horse serum (Sigma), 2 mM L-glutamine, and 1% antibiotic-antimycotic (Invitrogen). Human embryonic kidney 293 cells (HEK cells; ATCC) were cultured in DMEM supplemented with 10% FBS, 1 mM sodium pyruvate (Sigma), 2 g/L sodium bicarbonate (Fisher Scientific), 30 mM HEPES (Sigma), and 1% antibiotic-antimycotic, and used as a non-neural cell control. Co-culture of hPSC-derived BMECs was initiated with primary rat astrocytes or HEK cells in either EC medium (called 1% PDS medium in Table 2) or 70:30 (v/v) DMEM/F12 (Sigma/Invitrogen) supplemented with 1% antibiotic-antimycotic, 2% B27 (Invitrogen), and 10% FBS^37 (called 10% FBS medium in Table 2). Trans-endothelial electrical resistance (TEER) measurements were performed using an EVOM voltohmmeter (World Precision Instruments) at the start of co-culture and every 24 h thereafter. The resistance value (Ω×cm^2) of an empty filter coated with collagen/fibronectin was subtracted from each measurement. Permeability coefficients (Pe) were evaluated after 24 h of co-culture as previously described^34. For sodium fluorescein Pe measurements, 10% FBS medium containing 1 μM sodium fluorescein solution was added to the apical chamber of the […]™ filter. 200 μL aliquots were extracted from the basolateral chamber (which contains 1.5 mL of medium) every 30 min and replaced by fresh medium. Using a fluorescent plate reader and calibration curve, the flux of fluorescein to the bottom chamber and permeability coefficients were calculated as described by Calabria et al^34. To determine the Pe of radiolabeled ligands, compounds were diluted to 0.4 μCi in transport buffer (distilled water with 0.12 M NaCl, 25 mM NaHCO3, 3 mM KCl, 2 mM MgSO4, 2 mM CaCl2, 0.4 mM K2HPO4, 1 mM HEPES, and 0.1% bovine serum albumin [BSA; Sigma]) and 0.5 mL were added to the upper chamber. 200 μL aliquots were extracted from the basolateral chamber every 15 min and replaced by fresh buffer. […] [^3H]-vincristine was purchased from American Radiolabeled Chemicals, while all other radiolabeled compounds were acquired from PerkinElmer. All compound incubations were conducted at 37° C., and the radioactive permeability experiments were carried out on a rotator. Triplicate filters were used for all permeability studies and the values listed throughout the Results section are representative of a minimum of two biological replicates.
# [1] = cited from earlier work
# [2] = tested on: BBB influx and efflux transporters (GLUT-1, MDR1, BCRP, MRP family, organic cation transporters); settings: cited from earlier work
# [3] = tested on: p-glycoprotein, BCRP and MRP family efflux transporters; experiment: Apical-to-basolateral transport of doxorubicin with efflux inhibitors, IMR90-4-derived BMEC/astrocyte model; format: in vitro ADME, human; settings: astrocyte co-culture; 60 min; normalized to no inhibitor
# [4] = tested on: p-glycoprotein, BCRP, and the MRP family; experiment: Doxorubicin accumulation assay with efflux inhibitors in monocultured IMR90-4-derived BMECs; format: in vitro ADME, human; settings: monoculture; doxorubicin 0.25 μCi, 1 h; 5 μM cyclosporin A, 1 μM Ko143 or 10 μM MK 571
# Wnt/β-catenin pathway = experiment: Quantitative RT-PCR of genes elevated during BMEC specification under Wnt inhibition; format: cell-based, human; settings: IMR90-4, 7 days UM; SFRP2 250 then 750 ng/mL, or 10 μM XAV-939 from day 2, versus untreated or DMSO
# Description: Cells were differentiated as previously described. […] For RNA collection, cells were washed once with PBS and dissociated with trypsin or accutase. Total RNA was extracted using an RNeasy Mini Kit (Qiagen) according to the manufacturer's instructions. cDNA was generated from 1 μg of RNA using Omniscript reverse transcriptase (Qiagen) and oligo-dT primers (Invitrogen). Quantitative PCR (qPCR) was then performed using 1 μL of cDNA and iQ SYBR Green Supermix (Bio-Rad) on an iCycler (Bio-Rad). RT-PCR was also performed using GoTaq Green Master Mix (Promega). Primer sequences are supplied in Table 8. Relative expression was quantified using the comparative cycle threshold (CT) method, normalizing to glyceraldehyde-3-phosphate dehydrogenase (GAPDH) expression. Fold difference was calculated as x^−ΔΔCT, where x refers to primer efficiency calculated according LinRegPCR version 12.3^59. Transcript amplification was analyzed by 2% agarose gel electrophoresis of the qPCR or RT-PCR products.
# [5] = tested on: differentiating IMR90-4 iPSC cultures (BMEC specification); experiment: Flow cytometry of PECAM-1/GLUT-1 expression in differentiating IMR90-4 cultures under Wnt inhibition; format: cell-based, human
# Description: Cells were harvested via Accutase (Invitrogen) incubation for 2-3 min, fixed in 100% ice-cold methanol for 20 min, and blocked with 40% PBSG for 20 min at room temperature. Primary antibody labeling (Table 5) was performed in 10% PBSG for 1 h at room temperature. IgG controls were used at the same concentration. After a wash with 5% FBS in PBS, secondary antibodies (goat anti-rabbit Alexa 488 and goat anti-mouse Alexa 647; 1:200) in 10% PBSG were added to each sample for 30 min at room temperature. After two washes with 5% FBS in PBS, the samples were analyzed on a FACScaliber flow cytometer. PECAM-1^+ events were quantified using a PECAM-1/forward scatter dot plot referenced to a rabbit IgG control. GLUT-1^+ events were quantified using a GLUT-1/forward scatter dot plot referenced to a 4D UM culture that lacked BMECs. Events that were found in both of these positive gates were classified as PECAM-1^+/GLUT-1^+ cells. βIII tubulin and nestin expression were quantified against rabbit and mouse IgG controls, respectively. Data are presented as two-dimensional dot plots with color codes to indicate events within each gate.
# [6] = tested on: differentiating IMR90-4 cultures; experiment: Claudin-5 and occludin localization and western blots in differentiating cultures under XAV-939; format: cell-based, human; settings: data not shown
# Description: Cells were washed once with PBS and fixed in either 2% paraformaldehyde or 100% ice-cold methanol for 15 min. The cells were then blocked with 40% goat serum in PBS (40% PBSG). If probing for an intracellular antigen, 0.1% TX-100 was present in the 40% PBSG. The cells were then incubated in 40% PBSG containing primary antibody (see Table 5 for list) for one h at room temperature. After three washes in PBS, cells were incubated in 40% PBSG containing goat anti-rabbit Texas Red (1:500; Invitrogen) or goat anti-mouse Alexa 488 (1:500; Invitrogen). Cell nuclei were labeled with 300 nM 4′,6-Diamidino-2-pheny-lindoldihydrochloride (DAPI) for 10 min. Cells were washed three times in PBS and visualized. In situ hybridization for detection of WNT7A and WNT7B transcripts was conducted similar to the method described by Planell-Saguer et al^58. Briefly, cells were washed once with PBS and fixed in 2% paraformaldehyde for 10 min, followed by permeabilization in PBS containing 0.1% TX-100 for 5 min. Pre-hybridization was performed with a water-based solution containing 3% BSA and 4× saline-sodium citrate buffer (SSC; Fisher), followed by a 1 h hybridization in 4×SSC and 10% dextran sulfate (Fisher) at room temperature. Digoxigenin-labeled locked nucleic acid probes were purchased from Exiqon (sequences found in Table 6). […]
# [7] = Sodium fluorescein permeability, DF19-9-11T-derived BMECs; format: in vitro ADME; settings: human, 1 μM sodium fluorescein, read-out: fluorescein permeability coefficient (Pe), average (converted)
# Description: (§1) Permeability coefficients were evaluated after 24 hours of co-culture as previously described. […] Using a fluorescent plate reader and calibration curve, the rate of fluorescene influx to the bottom chamber was calculated, and final values for permeability coefficients were then calculated according to Calabria et al.^34.
# hCMEC/D3 line = hCMEC/D3 line (ref. 9); cited from earlier work
# [8] = Sodium fluorescein permeability, IMR90-4-derived BMEC/astrocyte co-culture; format: in vitro ADME; settings: human; IMR90-4-derived BMECs, astrocyte co-culture, 1 μM sodium fluorescein; read-out: fluorescein permeability coefficient (Pe) (converted)
# Description: as §1
# primary human BMECs = primary human BMECs (ref. 56); cited from earlier work
# [9] = IMR90-4-derived BMEC/astrocyte co-culture model
# [10] = IMR90-4-derived BMECs co-cultured with rat astrocytes, radiolabeled compound, apical to basolateral over 1 h, 37° C., mean ± SD of biological replicates
# [11] = efflux transporter substrates (Table 6)
molecule,measurement,setting,value
COc1cc2c(c(OC)c1OC)-c1ccc(OC)c(=O)cc1[C@@H](NC(C)=O)CC2 [Colchicine],Pe value,IMR90-4-derived BMECs; [9],1.53 ×10⁻⁶ cm/s
same,Average Pe,IMR90-4-derived BMECs; [10],0.09 ± 0.1 10^−3 cm/min
same,Octanol/water partition coefficient (logD),[1],1.03
CN1C(=O)CN=C(c2ccccc2)c2cc(Cl)ccc21 [Diazepam],Pe value,IMR90-4-derived BMECs; [9],18.5 ×10⁻⁶ cm/s
same,Average Pe,IMR90-4-derived BMECs; [10],1.11 ± 0.45 10^−3 cm/min
COc1cccc2c1C(=O)c1c(O)c3c(c(O)c1C2=O)C[C@@](O)(C(=O)CO)C[C@@H]3O[C@H]1C[C@H](N)[C@H](O)[C@H](C)O1 [Doxorubicin],Transporter recognition,[2]; [11],"MDR1, BCRP, MRP1, MRP2"
COc1ccc2c3c([nH]c2c1)[C@H](CC(C)C)N1C(=O)[C@H](CCC(=O)OC(C)(C)C)NC(=O)[C@@H]1C3 [Ko143],transport of doxorubicin from the apical to basolateral chamber in the presence of inhibitor,[3],1.3 fold
same,accumulation of doxorubicin in the presence of inhibitor,[4],increased
same,Transporter recognition,[2]; efflux transporter inhibitors (Table 6),BCRP
COc1cc2nc(N3CCN(C(=O)c4ccco4)CC3)nc(N)c2cc1OC [Prazosin],Pe value,IMR90-4-derived BMECs; [9],4.77 ×10⁻⁶ cm/s
same,Average Pe,IMR90-4-derived BMECs; [10],0.29 ± 0.04 10^−3 cm/min
same,Octanol/water partition coefficient (logD),[1],2.16
OC[C@H]1O[C@@](CO)(O[C@H]2O[C@H](CO)[C@@H](O)[C@H](O)[C@H]2O)[C@@H](O)[C@@H]1O [Sucrose],Octanol/water partition coefficient (logD),[1],−3.3
CC[C@]1(O)C[C@H]2CN(CCc3c([nH]c4ccccc34)[C@@](C(=O)OC)(c3cc4c(cc3OC)N(C=O)[C@H]3[C@@](O)(C(=O)OC)[C@H](OC(C)=O)[C@]5(CC)C=CCN6CC[C@]43[C@@H]65)C2)C1 [Vincristine],Average Pe,"IMR90-4-derived BMECs; human, 1 h",0.06 ± 0.02 10^−3 cm/min
same,Pe value,"IMR90-4-derived BMECs; human, 1 h",1.03 ×10⁻⁶ cm/s
same,Octanol/water partition coefficient (logD),[1],2.8
Oc1nc(-c2ccc(C(F)(F)F)cc2)nc2c1CSCC2 [XAV-939],"expression of LEF1, FST, STRA6, FZD6, SLC2A1 and ABCB1 by quantitative RT-PCR",Wnt/β-catenin pathway,statistically significant downregulation
same,Mean per cell expression of GLUT-1,"[5]; IMR90-4, 6D UM 2D EC, 10 μM XAV-939, DMSO control 285",272 A.U.
same,% GLUT-1^+/PECAM-1^+,"[5]; IMR90-4, 6D UM 2D EC, 10 μM XAV-939 from day 2 of UM, DMSO control 64%",46%
same,% PECAM-1^+ overall,"[5]; IMR90-4, 6D UM 2D EC, 10 μM XAV-939 from day 2 of UM, DMSO control 68%",61%
same,net reduction in the overall number of PECAM-1^+/GLUT-1^+ BMECs,"[5]; IMR90-4, XAV-939 versus DMSO control",20%
same,claudin-5 or occludin localization,[6]; XAV-939 treatment,did not alter
same,amounts of claudin-5 and occludin by western blots,[6]; regardless of XAV-939 treatment,equal amounts
O=C1OC2(c3ccc(O)cc3Oc3cc(O)ccc32)c2ccccc21 [sodium fluorescein],Papp A→B at 1 μM,[7],0.085 ×10⁻⁶ cm/s
same,reported sodium fluorescein Pe,hCMEC/D3 line,56.7 ×10⁻⁶ cm/s
same,Papp A→B at 1 μM,[8],0.0367 ×10⁻⁶ cm/s
same,reported sodium fluorescein Pe,primary human BMECs,53.3 ×10⁻⁶ cm/s
Inulin,Average Pe,IMR90-4-derived BMECs; [10],0.029 ± 0.015 10^−3 cm/min
same,Octanol/water partition coefficient (logD),[1],−0.25
same,Transporter recognition,[2]; compounds of the permeability screen (Table 5),None
Rhodamine 123,Transporter recognition,[2]; [11],MDR1
B1,"expression of LEF1, FST, STRA6, FZD6, SLC2A1 and ABCB1 by quantitative RT-PCR",Wnt/β-catenin pathway,statistically significant downregulation
